5 compounds from PubChem BioAssay AID1963837 (Molecular Pharmacology Branch, DTP, NCI, 2024) can be followed below.

Molecules are shown by their SMILES.
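Note: spheroids exposed to drugs for seven days before readout.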

The first test deals with 843126-344-R-J1-PDC complex spheroid viability. Nature of the test: Anticancer human tumor 843126-344-R-J1-PDC patient-derived melanoma cell line growth inhibition [POLQ]. To be noted: second compound 1 µM; first compound 0.316 µM; hits give low values. The procedure, abridged:
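Three-cell-type spheroids modelling solid tumor plus stroma served as the readout system; POL inhibitors were tested individually and in combination, concentration ranges set by clinical Cmax where known.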
Broadly, the viability, T/C is the ratio of treated to control. Consider `CC1COCCN1c1cc(C2(O)CC3CCC(C2)O3)c2cnn(-c3ccn[nH]3)c2n1` (stereo unspecified) + Nc1ccc(C#CCN(C(=O)Cc2ncc(C(F)(F)F)cc2C(F)(F)F)c2ccc(F)cc2)nn1, for which the viability, T/C was 48.5%.

Consider `CCc1cc2c(N3CCc4c(cc(Cn5ccnc5)cc4-c4cn(C)nc4C(F)(F)F)C3=O)cc(C)nc2c(OC)n1` + Nc1ccc(C#CCN(C(=O)Cc2ncc(C(F)(F)F)cc2C(F)(F)F)c2ccc(F)cc2)nn1, for which the viability, T/C is 80.3%.

Turning to `COc1cc2cc(C(=O)CCC(=O)O)sc2cc1OC` + Nc1ccc(C#CCN(C(=O)Cc2ncc(C(F)(F)F)cc2C(F)(F)F)c2ccc(F)cc2)nn1, the viability, T/C is 93.8%.

For `O=C(Nc1ccc(O)c(NS(=O)(=O)c2ccc(F)cc2)c1)c1ccc(-c2ccccc2)cc1` + Nc1ccc(C#CCN(C(=O)Cc2ncc(C(F)(F)F)cc2C(F)(F)F)c2ccc(F)cc2)nn1, the viability, T/C is 81.3%.

Still in this test, the particulars now being: second compound 1 µM; first compound 1 µM; hits give low values.
With `C#Cc1c(F)ccc2cc(O)cc(-c3ncc4c(N5CC6CCC(C5)N6)nc(OCC56CCCN5CC(F)C6)nc4c3F)c12` (stereo unspecified) + Nc1ccc(C#CCN(C(=O)Cc2ncc(C(F)(F)F)cc2C(F)(F)F)c2ccc(F)cc2)nn1, the viability, T/C was 117%.

Consider `CC1COCCN1c1cc(C2(O)CC3CCC(C2)O3)c2cnn(-c3ccn[nH]3)c2n1` (stereo unspecified) + Nc1ccc(C#CCN(C(=O)Cc2ncc(C(F)(F)F)cc2C(F)(F)F)c2ccc(F)cc2)nn1, for which the viability, T/C is 38.8%.

As to `CCc1cc2c(N3CCc4c(cc(Cn5ccnc5)cc4-c4cn(C)nc4C(F)(F)F)C3=O)cc(C)nc2c(OC)n1` + Nc1ccc(C#CCN(C(=O)Cc2ncc(C(F)(F)F)cc2C(F)(F)F)c2ccc(F)cc2)nn1, the viability, T/C was 81.7%.

Consider `COc1cc2cc(C(=O)CCC(=O)O)sc2cc1OC` + Nc1ccc(C#CCN(C(=O)Cc2ncc(C(F)(F)F)cc2C(F)(F)F)c2ccc(F)cc2)nn1, for which the viability, T/C is 83.2%.

For `O=C(Nc1ccc(O)c(NS(=O)(=O)c2ccc(F)cc2)c1)c1ccc(-c2ccccc2)cc1` + Nc1ccc(C#CCN(C(=O)Cc2ncc(C(F)(F)F)cc2C(F)(F)F)c2ccc(F)cc2)nn1, the viability, T/C was 90%.

The test is the same for the next values; noted with them: second compound 1 µM; first compound 3.16 µM; hits give low values.
As to `C#Cc1c(F)ccc2cc(O)cc(-c3ncc4c(N5CC6CCC(C5)N6)nc(OCC56CCCN5CC(F)C6)nc4c3F)c12` (stereo unspecified) + Nc1ccc(C#CCN(C(=O)Cc2ncc(C(F)(F)F)cc2C(F)(F)F)c2ccc(F)cc2)nn1, the viability, T/C was 109%.

In the case of `CC1COCCN1c1cc(C2(O)CC3CCC(C2)O3)c2cnn(-c3ccn[nH]3)c2n1` (stereo unspecified) + Nc1ccc(C#CCN(C(=O)Cc2ncc(C(F)(F)F)cc2C(F)(F)F)c2ccc(F)cc2)nn1, the viability, T/C is 28.7%.

For the compound `CCc1cc2c(N3CCc4c(cc(Cn5ccnc5)cc4-c4cn(C)nc4C(F)(F)F)C3=O)cc(C)nc2c(OC)n1` + Nc1ccc(C#CCN(C(=O)Cc2ncc(C(F)(F)F)cc2C(F)(F)F)c2ccc(F)cc2)nn1, the viability, T/C was 68.6%.

On to `COc1cc2cc(C(=O)CCC(=O)O)sc2cc1OC` + Nc1ccc(C#CCN(C(=O)Cc2ncc(C(F)(F)F)cc2C(F)(F)F)c2ccc(F)cc2)nn1, for which the viability, T/C is 90.1%.

For `O=C(Nc1ccc(O)c(NS(=O)(=O)c2ccc(F)cc2)c1)c1ccc(-c2ccccc2)cc1` + Nc1ccc(C#CCN(C(=O)Cc2ncc(C(F)(F)F)cc2C(F)(F)F)c2ccc(F)cc2)nn1, the viability, T/C is 82.2%.

Staying with this test, now noted: second compound 1 µM; first compound 10 µM; hits give low values.
As to `C#Cc1c(F)ccc2cc(O)cc(-c3ncc4c(N5CC6CCC(C5)N6)nc(OCC56CCCN5CC(F)C6)nc4c3F)c12` (stereo unspecified) + Nc1ccc(C#CCN(C(=O)Cc2ncc(C(F)(F)F)cc2C(F)(F)F)c2ccc(F)cc2)nn1, the viability, T/C is 88.8%.

On to `CC1COCCN1c1cc(C2(O)CC3CCC(C2)O3)c2cnn(-c3ccn[nH]3)c2n1` (stereo unspecified) + Nc1ccc(C#CCN(C(=O)Cc2ncc(C(F)(F)F)cc2C(F)(F)F)c2ccc(F)cc2)nn1, for which the viability, T/C is 18.7%.

For the compound `CCc1cc2c(N3CCc4c(cc(Cn5ccnc5)cc4-c4cn(C)nc4C(F)(F)F)C3=O)cc(C)nc2c(OC)n1` + Nc1ccc(C#CCN(C(=O)Cc2ncc(C(F)(F)F)cc2C(F)(F)F)c2ccc(F)cc2)nn1, the viability, T/C is 58.8%.

As for `COc1cc2cc(C(=O)CCC(=O)O)sc2cc1OC` + Nc1ccc(C#CCN(C(=O)Cc2ncc(C(F)(F)F)cc2C(F)(F)F)c2ccc(F)cc2)nn1, the viability, T/C was 76.8%.

For `O=C(Nc1ccc(O)c(NS(=O)(=O)c2ccc(F)cc2)c1)c1ccc(-c2ccccc2)cc1` + Nc1ccc(C#CCN(C(=O)Cc2ncc(C(F)(F)F)cc2C(F)(F)F)c2ccc(F)cc2)nn1, the viability, T/C was 67.8%.

The same test, now with this note: second compound 3.16 µM; first compound 0.0316 µM; hits give low values.
As to `C#Cc1c(F)ccc2cc(O)cc(-c3ncc4c(N5CC6CCC(C5)N6)nc(OCC56CCCN5CC(F)C6)nc4c3F)c12` (stereo unspecified) + Nc1ccc(C#CCN(C(=O)Cc2ncc(C(F)(F)F)cc2C(F)(F)F)c2ccc(F)cc2)nn1, the viability, T/C was 89.1%.

Regarding `CC1COCCN1c1cc(C2(O)CC3CCC(C2)O3)c2cnn(-c3ccn[nH]3)c2n1` (stereo unspecified) + Nc1ccc(C#CCN(C(=O)Cc2ncc(C(F)(F)F)cc2C(F)(F)F)c2ccc(F)cc2)nn1, the viability, T/C was 79.1%.

For `CCc1cc2c(N3CCc4c(cc(Cn5ccnc5)cc4-c4cn(C)nc4C(F)(F)F)C3=O)cc(C)nc2c(OC)n1` + Nc1ccc(C#CCN(C(=O)Cc2ncc(C(F)(F)F)cc2C(F)(F)F)c2ccc(F)cc2)nn1, the viability, T/C is 90.6%.

As to `COc1cc2cc(C(=O)CCC(=O)O)sc2cc1OC` + Nc1ccc(C#CCN(C(=O)Cc2ncc(C(F)(F)F)cc2C(F)(F)F)c2ccc(F)cc2)nn1, the viability, T/C was 96.9%.

For `O=C(Nc1ccc(O)c(NS(=O)(=O)c2ccc(F)cc2)c1)c1ccc(-c2ccccc2)cc1` + Nc1ccc(C#CCN(C(=O)Cc2ncc(C(F)(F)F)cc2C(F)(F)F)c2ccc(F)cc2)nn1, the viability, T/C was 92%.

Staying with this test, now noted: second compound 3.16 µM; first compound 0.1 µM; hits give low values.
Regarding `C#Cc1c(F)ccc2cc(O)cc(-c3ncc4c(N5CC6CCC(C5)N6)nc(OCC56CCCN5CC(F)C6)nc4c3F)c12` (stereo unspecified) + Nc1ccc(C#CCN(C(=O)Cc2ncc(C(F)(F)F)cc2C(F)(F)F)c2ccc(F)cc2)nn1, the viability, T/C is 84.2%.

With `CC1COCCN1c1cc(C2(O)CC3CCC(C2)O3)c2cnn(-c3ccn[nH]3)c2n1` (stereo unspecified) + Nc1ccc(C#CCN(C(=O)Cc2ncc(C(F)(F)F)cc2C(F)(F)F)c2ccc(F)cc2)nn1, the viability, T/C is 70.1%.
